Reference: ChEMBL document CHEMBL1201862, “PubChem BioAssay data set” (2004)
The source made the active and inactive calls.

Legend:
[1] = CRF-BP/CRF-R2 complex antagonists, dose response, cell-based, uHTS hits, 384-well (AID 651639); type: functional, Homo sapiens; settings: read-out: IC50_Mean
[2] = target: T1, Corticotropin-releasing factor receptor 2/Corticotropin-releasing factor-binding protein (Homo sapiens, UniProt P24387+Q13324); experiment: activators of CRF receptor 2 with binding protein – uHTS hits, confirmation (AID 602473); type: functional; settings: read-out: EC50_Mean
T1 sequence (Q13324 whole entry): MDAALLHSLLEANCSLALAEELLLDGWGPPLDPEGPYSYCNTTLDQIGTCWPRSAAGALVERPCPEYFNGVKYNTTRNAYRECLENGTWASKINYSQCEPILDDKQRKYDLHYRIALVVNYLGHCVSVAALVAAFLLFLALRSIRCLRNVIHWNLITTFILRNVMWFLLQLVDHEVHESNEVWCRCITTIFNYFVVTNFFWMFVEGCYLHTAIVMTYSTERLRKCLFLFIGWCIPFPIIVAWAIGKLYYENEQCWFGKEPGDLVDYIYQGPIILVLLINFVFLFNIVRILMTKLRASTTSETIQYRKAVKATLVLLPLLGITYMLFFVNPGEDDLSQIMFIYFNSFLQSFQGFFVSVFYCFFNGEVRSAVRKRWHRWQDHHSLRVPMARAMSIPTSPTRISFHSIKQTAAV
T1 sequence (P24387 whole entry): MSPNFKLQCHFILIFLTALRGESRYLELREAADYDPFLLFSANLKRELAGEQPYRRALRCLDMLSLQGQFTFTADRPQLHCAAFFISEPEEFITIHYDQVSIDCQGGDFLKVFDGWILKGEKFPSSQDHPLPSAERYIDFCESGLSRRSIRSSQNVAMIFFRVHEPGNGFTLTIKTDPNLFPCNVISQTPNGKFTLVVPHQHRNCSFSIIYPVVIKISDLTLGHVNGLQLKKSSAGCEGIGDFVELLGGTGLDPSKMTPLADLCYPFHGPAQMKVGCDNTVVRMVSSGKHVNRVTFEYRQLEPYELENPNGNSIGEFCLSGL

[3] = target: Acyl-homoserine lactone acylase PvdQ (Pseudomonas aeruginosa (strain LESB58), UniProt Q9I194); experiment: P. aeruginosa PvdQ acylase inhibitors, dose response, biochemical, fluorescence, plate reader and imaging, cherry-picks (AID 493231)
Acyl-homoserine lactone acylase PvdQ, sequence (Q9I194 24-193 limits assumed): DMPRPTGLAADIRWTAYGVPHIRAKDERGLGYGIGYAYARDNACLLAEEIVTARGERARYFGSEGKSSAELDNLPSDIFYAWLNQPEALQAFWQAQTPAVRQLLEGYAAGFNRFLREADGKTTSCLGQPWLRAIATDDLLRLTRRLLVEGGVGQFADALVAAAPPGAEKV
Acyl-homoserine lactone acylase PvdQ, sequence (Q9I194 217-762 limits assumed): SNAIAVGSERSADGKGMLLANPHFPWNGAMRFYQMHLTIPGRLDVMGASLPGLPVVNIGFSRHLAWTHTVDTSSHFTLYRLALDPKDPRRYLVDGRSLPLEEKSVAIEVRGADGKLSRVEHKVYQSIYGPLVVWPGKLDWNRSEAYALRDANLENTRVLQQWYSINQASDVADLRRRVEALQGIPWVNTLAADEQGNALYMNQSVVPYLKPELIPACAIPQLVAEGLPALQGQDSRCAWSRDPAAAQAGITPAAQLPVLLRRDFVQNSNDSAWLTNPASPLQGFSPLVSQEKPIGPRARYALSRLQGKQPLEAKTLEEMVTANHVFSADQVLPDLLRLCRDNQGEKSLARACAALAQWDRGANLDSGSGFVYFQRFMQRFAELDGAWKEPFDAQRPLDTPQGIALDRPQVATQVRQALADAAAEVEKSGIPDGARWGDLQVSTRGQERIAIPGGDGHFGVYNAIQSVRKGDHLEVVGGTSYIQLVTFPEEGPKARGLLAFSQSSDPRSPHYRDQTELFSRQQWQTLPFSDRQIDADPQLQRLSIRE

[4] = target: T1, Corticotropin-releasing factor receptor 2/Corticotropin-releasing factor-binding protein; experiment: Dose Response confirmation of uHTS hits for small molecule antagonists of the CRF-binding protein and CRF-R2 receptor complex.; type: functional; settings: read-out: IC50_Mean
[5] = target: T2, Eukaryotic translation initiation factor 2-alpha kinase 3 (Homo sapiens, UniProt Q9NZJ5); experiment: Counterscreen assay for PERK inhibitors: Dose response cell-based high throughput screening assay to measure inhibition of PERK at 6 hours. [Related pubchem assays: 1522, 1416 ]; type: functional
T2 sequence (Q9NZJ5 whole entry): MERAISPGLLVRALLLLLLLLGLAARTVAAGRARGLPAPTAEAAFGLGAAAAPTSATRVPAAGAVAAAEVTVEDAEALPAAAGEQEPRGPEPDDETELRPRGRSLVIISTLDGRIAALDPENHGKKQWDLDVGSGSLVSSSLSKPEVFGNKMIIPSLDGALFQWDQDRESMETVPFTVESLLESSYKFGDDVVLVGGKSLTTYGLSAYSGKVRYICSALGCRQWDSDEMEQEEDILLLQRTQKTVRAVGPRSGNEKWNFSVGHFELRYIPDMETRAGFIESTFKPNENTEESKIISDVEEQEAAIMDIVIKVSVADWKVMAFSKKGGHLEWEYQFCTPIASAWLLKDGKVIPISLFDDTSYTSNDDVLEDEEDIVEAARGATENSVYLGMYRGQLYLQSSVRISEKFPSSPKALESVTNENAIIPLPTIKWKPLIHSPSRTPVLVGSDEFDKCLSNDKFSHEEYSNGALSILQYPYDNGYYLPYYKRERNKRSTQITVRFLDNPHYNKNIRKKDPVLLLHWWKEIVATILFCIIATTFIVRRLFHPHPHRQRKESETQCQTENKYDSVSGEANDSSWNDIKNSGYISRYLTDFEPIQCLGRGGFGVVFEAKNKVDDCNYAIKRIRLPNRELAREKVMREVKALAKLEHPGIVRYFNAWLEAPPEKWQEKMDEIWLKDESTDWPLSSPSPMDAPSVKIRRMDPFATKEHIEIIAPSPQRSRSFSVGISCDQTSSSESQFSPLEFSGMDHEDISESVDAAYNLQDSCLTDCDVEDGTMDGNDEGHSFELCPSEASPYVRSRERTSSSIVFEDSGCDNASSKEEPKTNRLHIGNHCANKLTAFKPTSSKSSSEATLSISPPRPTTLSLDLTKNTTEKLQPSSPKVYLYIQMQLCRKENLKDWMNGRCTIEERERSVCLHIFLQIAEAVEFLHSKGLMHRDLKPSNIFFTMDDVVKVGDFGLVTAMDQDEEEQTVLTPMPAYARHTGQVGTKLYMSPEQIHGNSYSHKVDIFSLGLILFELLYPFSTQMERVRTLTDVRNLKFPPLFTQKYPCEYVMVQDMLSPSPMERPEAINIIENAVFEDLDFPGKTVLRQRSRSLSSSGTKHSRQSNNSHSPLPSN

[6] = target: T2, Eukaryotic translation initiation factor 2-alpha kinase 3; experiment: Dose response cell-based high-throughput screening assay to measure PERK inhibition. [Related pubchem assays: 1416 ]; type: functional
[7] = target: Metabotropic glutamate receptor 4 (Rattus norvegicus, UniProt P31423); experiment: Modulation of the Metabotropic Glutamate Receptor mGluR4: Rat PAM Potency. [Related pubchem assays (depositor defined):AID2437, AID2807]; type: functional
Metabotropic glutamate receptor 4, sequence (P31423 whole entry): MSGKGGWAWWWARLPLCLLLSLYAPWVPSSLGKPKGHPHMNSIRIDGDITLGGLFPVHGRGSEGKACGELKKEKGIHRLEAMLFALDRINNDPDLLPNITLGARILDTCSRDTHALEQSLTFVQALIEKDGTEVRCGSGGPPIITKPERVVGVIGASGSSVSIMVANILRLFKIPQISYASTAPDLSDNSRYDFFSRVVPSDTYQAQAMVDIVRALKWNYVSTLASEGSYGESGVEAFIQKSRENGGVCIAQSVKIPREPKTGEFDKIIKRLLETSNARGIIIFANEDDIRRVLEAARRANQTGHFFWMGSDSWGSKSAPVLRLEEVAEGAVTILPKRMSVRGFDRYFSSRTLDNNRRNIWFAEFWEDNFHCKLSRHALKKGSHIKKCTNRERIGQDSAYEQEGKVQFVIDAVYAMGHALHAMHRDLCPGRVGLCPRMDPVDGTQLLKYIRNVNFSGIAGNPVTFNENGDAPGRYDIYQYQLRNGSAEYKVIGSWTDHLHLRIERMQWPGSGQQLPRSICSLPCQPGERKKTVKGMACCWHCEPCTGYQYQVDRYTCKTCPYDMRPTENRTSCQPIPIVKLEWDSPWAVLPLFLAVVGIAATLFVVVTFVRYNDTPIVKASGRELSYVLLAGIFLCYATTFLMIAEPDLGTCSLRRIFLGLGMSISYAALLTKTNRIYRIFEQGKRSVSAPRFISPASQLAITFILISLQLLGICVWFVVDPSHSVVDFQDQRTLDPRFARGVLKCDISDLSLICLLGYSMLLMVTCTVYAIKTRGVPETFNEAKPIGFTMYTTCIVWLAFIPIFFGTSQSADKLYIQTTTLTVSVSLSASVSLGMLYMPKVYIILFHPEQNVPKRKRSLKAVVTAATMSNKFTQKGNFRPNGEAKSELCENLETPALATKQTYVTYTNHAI

[8] = A cytotoxicity screen of small molecule inhibitors of the PhoP region in Salmonella typhi identified in the primary screen. [Related pubchem assays: 1850, 1864, 1985 ]; type: functional
Cytochrome P450 2D6 = Cytochrome P450 2D6 (Homo sapiens, UniProt P10635); experiment: qHTS Assay for Inhibitors and Substrates of Cytochrome P450 2D6. [Related pubchem assays: 410 ]; type: ADME; settings: read-out: Potency
Cytochrome P450 2D6, sequence (P10635 whole entry): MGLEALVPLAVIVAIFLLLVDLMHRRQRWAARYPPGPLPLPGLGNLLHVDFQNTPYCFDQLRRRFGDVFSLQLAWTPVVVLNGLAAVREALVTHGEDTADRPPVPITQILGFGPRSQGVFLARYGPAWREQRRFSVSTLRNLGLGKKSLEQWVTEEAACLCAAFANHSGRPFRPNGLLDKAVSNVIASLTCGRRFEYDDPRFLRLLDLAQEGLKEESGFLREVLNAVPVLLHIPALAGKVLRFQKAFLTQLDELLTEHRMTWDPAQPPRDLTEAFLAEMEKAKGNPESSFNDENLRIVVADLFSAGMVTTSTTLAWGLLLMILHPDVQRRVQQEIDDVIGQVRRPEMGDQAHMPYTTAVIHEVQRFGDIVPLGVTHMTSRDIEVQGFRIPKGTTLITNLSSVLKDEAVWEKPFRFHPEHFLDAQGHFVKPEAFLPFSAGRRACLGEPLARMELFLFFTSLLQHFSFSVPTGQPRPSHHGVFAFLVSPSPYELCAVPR

Mucolipin-3 = Mucolipin-3 (Homo sapiens, UniProt Q8TDD5); experiment: Dose response cell-based high-throughput screening assay for agonists of the transient receptor potential channel ML3 (TRPML3). [Related pubchem assays: 1526, 1424, 1448 ]; type: functional
Mucolipin-3, sequence (Q8TDD5 whole entry): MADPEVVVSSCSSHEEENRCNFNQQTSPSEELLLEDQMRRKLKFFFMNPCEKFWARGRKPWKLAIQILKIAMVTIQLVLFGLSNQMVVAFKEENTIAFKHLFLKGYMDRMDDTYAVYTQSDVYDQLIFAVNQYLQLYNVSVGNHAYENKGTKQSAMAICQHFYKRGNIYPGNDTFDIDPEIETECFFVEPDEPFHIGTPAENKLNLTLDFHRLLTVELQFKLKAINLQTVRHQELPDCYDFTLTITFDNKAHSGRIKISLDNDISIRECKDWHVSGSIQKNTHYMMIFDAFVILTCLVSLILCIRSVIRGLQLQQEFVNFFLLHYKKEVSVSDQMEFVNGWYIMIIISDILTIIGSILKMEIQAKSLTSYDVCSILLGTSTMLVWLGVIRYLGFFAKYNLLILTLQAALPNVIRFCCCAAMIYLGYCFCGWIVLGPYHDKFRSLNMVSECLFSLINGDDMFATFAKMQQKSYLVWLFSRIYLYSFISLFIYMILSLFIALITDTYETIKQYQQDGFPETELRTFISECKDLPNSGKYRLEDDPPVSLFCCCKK

Ion channel NompC = Ion channel NompC (Danio rerio, UniProt Q7T1G6); experiment: Fluorescence counterscreen assay for TRPML3 agonists: dose response cell-based high-throughput screening assay to identify agonists of the transient receptor potential channel N1 (TRPN1). [Related pubchem assays: 1526, 1424, 1448 ]; type: functional
[9] = target: NACHT, LRR and PYD domains-containing protein 3 (Homo sapiens, UniProt Q96P20); experiment: NALP3 inhibitors in yeast, dose response, luminescent (AID 488799); type: functional
NACHT, LRR and PYD domains-containing protein 3, sequence (Q96P20 whole entry, the tested form may be a part): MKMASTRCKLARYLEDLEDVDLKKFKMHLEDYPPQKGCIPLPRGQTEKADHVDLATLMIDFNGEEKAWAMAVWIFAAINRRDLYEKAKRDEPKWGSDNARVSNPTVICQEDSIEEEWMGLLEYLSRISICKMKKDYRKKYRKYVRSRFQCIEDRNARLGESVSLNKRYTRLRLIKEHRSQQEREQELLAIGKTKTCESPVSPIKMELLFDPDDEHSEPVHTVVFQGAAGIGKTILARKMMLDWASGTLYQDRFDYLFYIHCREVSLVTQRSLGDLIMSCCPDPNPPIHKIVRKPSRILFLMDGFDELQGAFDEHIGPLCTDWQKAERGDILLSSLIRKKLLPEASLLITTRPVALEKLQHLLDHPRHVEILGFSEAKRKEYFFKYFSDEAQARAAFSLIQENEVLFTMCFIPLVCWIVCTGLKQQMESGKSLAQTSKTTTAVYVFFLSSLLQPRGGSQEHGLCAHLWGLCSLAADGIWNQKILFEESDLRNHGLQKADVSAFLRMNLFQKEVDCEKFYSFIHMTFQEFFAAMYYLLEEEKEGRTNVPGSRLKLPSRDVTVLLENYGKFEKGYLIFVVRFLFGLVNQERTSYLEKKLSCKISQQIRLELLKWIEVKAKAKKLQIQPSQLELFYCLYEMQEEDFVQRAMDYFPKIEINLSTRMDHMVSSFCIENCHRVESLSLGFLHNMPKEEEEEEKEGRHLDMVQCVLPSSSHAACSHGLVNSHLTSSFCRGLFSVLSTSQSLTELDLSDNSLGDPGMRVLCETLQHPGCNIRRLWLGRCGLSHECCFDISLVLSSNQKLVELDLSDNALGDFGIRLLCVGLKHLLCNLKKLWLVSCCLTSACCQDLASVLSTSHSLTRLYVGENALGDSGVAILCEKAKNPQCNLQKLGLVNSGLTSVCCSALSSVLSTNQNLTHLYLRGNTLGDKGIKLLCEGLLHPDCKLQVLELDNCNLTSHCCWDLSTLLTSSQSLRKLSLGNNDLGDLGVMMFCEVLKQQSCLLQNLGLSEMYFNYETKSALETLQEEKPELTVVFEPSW

SMILES: O=[N+]([O-])c1cccnc1Sc1ccc(Cl)cc1
- IC50 [1]: 3.1 µM (active)
- EC50 [2]: > 53 µM (inactive)
- AC50 [3]: 30.1 µM (active)
- IC50 [4]: < 368 nM (active)

SMILES: C[C@]12CS(=O)(=O)C[C@H]1SC(=S)N2c1ccccc1
- EC50 [5]: > 55.7 µM (not active)
- EC50 [6]: > 55.7 µM (not active)

SMILES: O=C(Nc1ccc(Cl)c(Cl)c1)c1ccccn1
- EC50 [7]: 1.25 µM (active)

SMILES: CC(C)c1ccc(NC(=O)CSc2nnc(-c3ccccn3)n2C)cc1
- EC50 [8]: > 50 µM (active)

SMILES: CC(C)=CCc1c(O)cc(O)c2c1O[C@H](c1ccccc1)CC2=O [GLABRANIN]
- AC50 (Cytochrome P450 2D6): 31.6 µM (inconclusive)

SMILES: CN(CCOc1ccccc1)c1ccc(S(=O)(=O)N2CCCCC2)cn1
- EC50 (Mucolipin-3): 2.58 µM (active)
- EC50 (Ion channel NompC): > 29.9 µM (not active)
- IC50 [9]: > 100 µM (inactive)
